Reference: patent publication US20210345613A1, “HERBICIDAL PYRIMIDINE COMPOUNDS” (BASF SE, priority 2016, published 2021)

Assays:
[1] = test system: Amaranthus retroflexus; test: greenhouse herbicidal test, post-emergence treatment; type: in vivo; details: post-emergence method, application rate 2000 g/ha, scale from 0 to 100, test period 2 to 4 weeks
From the text: (§1) The seeds of the test plants were sown separately for each species. For the post-emergence treatment, the test plants were first grown to a height of 3 to 15 cm, depending on the plant habit, and only then treated with the active ingredients which had been suspended or emulsified in water. For this purpose, the test plants were either sown directly and grown in the same containers, or they were first grown separately as seedlings and transplanted into the test containers a few days prior to treatment. Depending on the species, the plants were kept at 10-25° C. or 20-35° C., respectively. The test period extended over 2 to 4 weeks. During this time, the plants were tended, and their response to the individual treatments was evaluated. Evaluation was carried out using a scale from 0 to 100. 100 means no emergence of the plants, or complete destruction of at least the aerial moieties, and 0 means no damage, or normal course of growth. A good herbicidal activity is given at values of at least 70 and a very good herbicidal activity is given at values of at least 85. The plants used in the greenhouse experiments were of the following species: [table]

[2] = test system: Matricaria inodora; test: as above; type: in vivo; details: post-emergence method, application rate 2000 g/ha, scale from 0 to 100, test period 2 to 4 weeks
From the text: as §1

Cc1nc(C2CC2)ncc1-c1ncccc1Cl [Ex.01]
herbicidal activity against AMARE [1]: very good (a very good herbicidal activity is given at values of at least 85)
herbicidal activity against MATIN [2]: very good (a very good herbicidal activity is given at values of at least 85)
